Measurements published in US20140121235A1, “Method for Treating S6K-Overexpressing Cancers” (Rush University Medical Center, priority 2012, published 2014).

Legend:
[1] = system: MCF-7 cells; test: Western blot of protein phosphorylation in MCF-7 cells; type: cell-based
Method: (A) A77 1726 induces MAP kinase activation in A375 cells cultured in 10% fetal bovine serum. A375 cells were seeded in a 6-well plate overnight and then stimulated with various concentrations of A77 1726 or PLX 4720 (1 μM) for 2 hr. Cells were harvested and analyzed for MAP kinase activation by anti-phospho-ERK1/2 antibody. The membrane was stripped and re-probed with anti-ERK1/2 antibody. (B) Lack of the feedback activation of the MAP and PI-3 kinase pathways in BT-20 cells. BT20 cells seeded in 6-well plates were starved in DMEM medium containing 05% EBS for 2 hr and treated with A77 1726 (0, 50 or 100 μM), Cells were harvested and analyzed for protein phosphorylation by specific antibodies as indicated. Protein loading was monitored by stripping membrane and re-probing with antibodies against non-phosphorylated proteins. (C) Strong feedback activation of the PI-3 kinase pathway and weak feedback activation of the MAP kinase pathway in MCF-7 cells by A77 1726 and rapamycin. […] Cells were harvested and analyzed for protein phosphorylation with the indicated antibodies. […] Cells were harvested and analyzed for protein phosphorylation by specific antibodies as indicated. Protein loading was monitored by stripping membrane and re-probing with antibodies against nonphosphorylated proteins. […]

[2] = cited from earlier work
[3] = molecular target: recombinant p70 S6 kinase (S6K1) (Homo sapiens, UniProt P23443); test: In vitro p70 S6 kinase assay (ADP-Glo Kinase assay system); type: biochemical; conditions: 30 min pre-incubation, ATP 10 μM, 1 hr, read-out: IC50, inhibition of recombinant S6K1 activity
recombinant p70 S6 kinase (S6K1), sequence (P23443 whole entry): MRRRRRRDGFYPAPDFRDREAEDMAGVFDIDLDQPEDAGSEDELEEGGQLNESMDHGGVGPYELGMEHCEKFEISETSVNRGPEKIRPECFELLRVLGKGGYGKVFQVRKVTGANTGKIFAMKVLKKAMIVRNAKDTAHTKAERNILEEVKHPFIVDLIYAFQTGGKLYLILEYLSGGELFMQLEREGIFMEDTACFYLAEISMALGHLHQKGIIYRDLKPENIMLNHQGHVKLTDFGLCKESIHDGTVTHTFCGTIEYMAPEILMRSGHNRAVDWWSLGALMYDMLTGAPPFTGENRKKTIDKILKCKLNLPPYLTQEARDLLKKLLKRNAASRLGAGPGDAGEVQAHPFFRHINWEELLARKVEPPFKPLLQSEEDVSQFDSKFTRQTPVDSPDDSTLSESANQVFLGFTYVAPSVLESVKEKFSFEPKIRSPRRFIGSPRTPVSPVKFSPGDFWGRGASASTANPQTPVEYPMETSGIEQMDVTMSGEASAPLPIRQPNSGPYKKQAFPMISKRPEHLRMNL
Method: Leflunomide and A77 1726 diluted at the final concentrations as indicated were pre-mixed with S6K1 for 30 min, followed by the addition of peptide substrate of S6K1 and incubation for 1 hr. S6K1 activity was measured by using a ADP-Glo™ system. The experiment was repeated with similar results. The data represents the mean±standard deviation from one experiment in triplicate.
The ability of lefiunomide and A77 1726 to inhibit p70 S6 kinase assay was conducted by using an ADP-Glo™ Kinase assay system (Promega Corporation, Madison, Wis.). Briefly, A77 1726 or leflunomide diluted in the kinase buffer was mixed with recombinant p70 S6 kinase (100 ng/reaction) and incubated at room temperature for 30 min. Peptide substrate of p70 S6 kinase (5 μg/reaction) and ATP (10 μM, final concentration) was added, with a total final volume of 25 μl. After incubation for 1 hr, ADP-Glo™ reagent (25 μl) was added to each reaction. After incubation for 40 min, kinase detection substrate (luciferin) (50 μl/reaction) was added. After incubation fix 30 min, luciferase activity was measured by reading in a luminescence plate reader. The experiment was conducted in triplicate and repeated once with similar results. The data from one experiment were presented as mean±standard deviation.

[4] = system: carbomoyl-phosphate synthetase 2 (CAD) Ser-1859 phosphorylation; test: CAD phosphorylation in A375 cells (phosphor-specific antibody); type: cell-based; conditions: A375 cells, 0, 50, 100 or 200 μM for 2 hours
Method: FIG. 12 illustrates inhibition of carbamoyl-phosphate synthetase 2 (CAD) by A 77 1726.
The ability of […] to inhibit phosphorylation of CAD at the Ser-1859 site was tested. A375 melanoma tumor cell line cultures were pretreated with the 0, 50, 100 or 200 μM A 771726 for 2 hours. Total cell lysates were prepared and analyzed for the phosphorylation of CAD by a phosphor-specific antibody.

[5] = system: A375 cells; test: Cell proliferation assay (ATP-based Cell-Glo); conditions: for inhibitory effect of A77 1726 blocked by uridine: exogenous uridine
Method: A375 cells were seeded in 96-well plates (2000 cells/well) and incubated the indicated concentrations of A77 1726 for 72 hr in the absence or presence of various concentrations PLX4720 (A, C) with or without uridine (200 μM) (B, D). Cell proliferation was analyzed by an ATP-based Cell-Glo assay. One representative of three experiments with similar results was shown. *p<0.01.
A375 cells were grown in complete RPMI 1640 medium supplemented with 10% fetal bovine serum. The cells were seeded in 96-well plates at the density of 2,000/well in the absence or presence of various concentrations of A77 1726, PLX4720, or uridine (200 μM). After incubation for 72 hr, cell proliferation was monitored by using an ATP-based Cell-Glo assay (Promegan, Madison, Wis.) following the manufacturer's instruction.

[6] = rheumatoid arthritis patients treated with leflunomide 20 mg/day; cited from earlier work
[7] = mice, single dose of 35 mg/kg of leflunomide

## C/C(O)=C(\C#N)C(=O)Nc1ccc(C(F)(F)F)cc1 [A77 1726]
[1]
  effect on ERK phosphorylation: slightly induced
  effect on S6^S235/236 phosphorylation: Inhibition
[2]; mice treated with leflunomide at a dose of 35 mg
  serum half-life of A77 1726: 15 h
[2]; mice, 24 hr after single dose of 35 mg/kg of leflunomide
  serum concentration of A77 1726 at 24 hr: 250 µM
[2]; [7]
  peak serum concentration of A77 1726: 500 µM
  time to peak concentration of A77 1726: ≤ 4 h
[3]
  IC50: ~80 µM
[4]
  effect on CAD phosphorylation at Ser-1859: inhibited phosphorylation in a dose-dependent manner
[5]; A77 1726 at 200 μM
  inhibitory effect of A77 1726 blocked by uridine: about 20%
[5]; A77 1726 at 50 or 100 μM
  inhibitory effect of A77 1726 blocked by uridine: 80%
[5]; Homo sapiens, A-375, 72 hr, read-out: IC50, inhibition of A375 proliferation
  IC50: ~65 µM
[6]
  plasma concentration of A77 1726: ≤ 200 µM
